ChEMBL document CHEMBL1909046, “DrugMatrix in vitro pharmacology data”
pIC50: −log10 of the molar value.

Tests used:
[1] = target: Sodium-dependent dopamine transporter (Homo sapiens, UniProt Q01959); test: DRUGMATRIX: Dopamine Transporter radioligand binding (ligand: [125I] RTI-55); type: cell membranes, CHO-K1, Membrane; settings: cho-k1; Not Active = under 50% inhibition at 10 µM
[2] = DRUGMATRIX: Platelet-Derived Growth Factor (PDGF) radioligand binding (ligand: [125I] PDGF); type: cell-based; settings: nih3t3; Not Active = under 50% inhibition at 10 µM
[3] = DRUGMATRIX: Sodium/nucleoside co-transporter radioligand binding (ligand: nitrobenzylthioinosine); type: cell membranes, Cavia porcellus, Dunkin-Hartley, Cerebral cortex, Membrane; settings: Not Active = under 50% inhibition at 10 µM
[4] = target: T1, Thromboxane-A synthase (Homo sapiens, UniProt P24557); test: biochemical; type: tissue-based, Platelet; settings: platelet;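 also: enzyme inhibition assay with PGH2 supplied as substrate; in other assays of this panel Not Active means under 50% inhibition at 10 µM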
T1 sequence (P24557 whole entry): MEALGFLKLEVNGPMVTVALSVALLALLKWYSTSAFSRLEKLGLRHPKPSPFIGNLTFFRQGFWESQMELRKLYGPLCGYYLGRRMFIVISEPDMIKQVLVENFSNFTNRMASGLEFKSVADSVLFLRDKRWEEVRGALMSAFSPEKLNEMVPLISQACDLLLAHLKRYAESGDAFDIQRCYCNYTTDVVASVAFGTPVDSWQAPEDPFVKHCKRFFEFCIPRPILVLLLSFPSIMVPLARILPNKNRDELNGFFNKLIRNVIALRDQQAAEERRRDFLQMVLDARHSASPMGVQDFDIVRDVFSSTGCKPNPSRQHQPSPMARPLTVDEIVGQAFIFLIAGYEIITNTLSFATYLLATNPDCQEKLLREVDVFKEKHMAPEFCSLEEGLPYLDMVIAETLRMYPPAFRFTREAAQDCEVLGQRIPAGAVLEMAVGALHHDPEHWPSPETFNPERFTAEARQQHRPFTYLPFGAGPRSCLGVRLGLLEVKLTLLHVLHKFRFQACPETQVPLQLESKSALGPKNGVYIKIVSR

[5] = target: Melanocortin receptor 4 (Homo sapiens, UniProt P32245); type: cell membranes, Membrane; settings: hek293; also: in other assays of this panel Not Active means under 50% inhibition at 10 µM
[6] = DRUGMATRIX: Purinergic P2X radioligand binding (ligand: [3H] alpha, beta-Methylene-ATP); type: cell membranes, Oryctolagus cuniculus, New Zealand albino, Urinary bladder, Membrane; settings: Not Active = under 50% inhibition at 10 µM
[7] = target: T2, Glucocorticoid receptor (Homo sapiens, UniProt P04150); settings: hela s3; also: in other assays of this panel Not Active means under 50% inhibition at 10 µM
T2 sequence (P04150 whole entry): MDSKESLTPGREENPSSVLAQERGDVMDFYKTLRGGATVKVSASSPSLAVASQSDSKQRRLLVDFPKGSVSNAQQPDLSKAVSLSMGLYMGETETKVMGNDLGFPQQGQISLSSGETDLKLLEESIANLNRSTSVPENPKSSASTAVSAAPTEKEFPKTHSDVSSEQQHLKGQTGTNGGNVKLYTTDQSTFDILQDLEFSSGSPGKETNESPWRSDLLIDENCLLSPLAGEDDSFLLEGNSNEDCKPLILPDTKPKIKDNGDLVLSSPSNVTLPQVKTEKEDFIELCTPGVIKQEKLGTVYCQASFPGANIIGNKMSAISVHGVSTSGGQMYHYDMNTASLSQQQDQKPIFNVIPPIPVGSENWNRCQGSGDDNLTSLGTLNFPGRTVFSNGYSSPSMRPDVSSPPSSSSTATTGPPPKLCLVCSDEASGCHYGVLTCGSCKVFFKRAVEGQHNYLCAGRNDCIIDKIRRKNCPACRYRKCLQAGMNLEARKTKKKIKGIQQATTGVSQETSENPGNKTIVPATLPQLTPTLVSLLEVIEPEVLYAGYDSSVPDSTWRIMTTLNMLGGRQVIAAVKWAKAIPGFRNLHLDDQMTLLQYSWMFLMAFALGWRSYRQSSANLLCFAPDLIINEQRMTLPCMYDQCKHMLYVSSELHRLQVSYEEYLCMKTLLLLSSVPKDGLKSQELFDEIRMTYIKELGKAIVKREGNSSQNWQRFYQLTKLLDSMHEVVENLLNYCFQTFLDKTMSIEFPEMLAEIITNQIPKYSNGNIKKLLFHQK

[8] = DRUGMATRIX: Glutamate, AMPA radioligand binding (ligand: [3H] AMPA); type: cell membranes, Rattus norvegicus, Wistar, Cerebral cortex, Membrane; settings: Not Active = under 50% inhibition at 10 µM
[9] = target: Adenosine receptor A2a (Homo sapiens, UniProt P29274); test: DRUGMATRIX: Adenosine A2A radioligand binding (ligand: […]); type: cell membranes, HEK293, Membrane; settings: hek293; Not Active = under 50% inhibition at 10 µM
[10] = target: Cytochrome P450 2D6 (Homo sapiens, UniProt P10635); settings: bti-tn-5b1-4; also: in other assays of this panel Not Active means under 50% inhibition at 10 µM
[11] = target: T3, Muscarinic acetylcholine receptor M4 (Homo sapiens, UniProt P08173); type: cell membranes, CHO-K1, Membrane; settings: cho-k1; also: in other assays of this panel Not Active means under 50% inhibition at 10 µM
T3 sequence (P08173 whole entry): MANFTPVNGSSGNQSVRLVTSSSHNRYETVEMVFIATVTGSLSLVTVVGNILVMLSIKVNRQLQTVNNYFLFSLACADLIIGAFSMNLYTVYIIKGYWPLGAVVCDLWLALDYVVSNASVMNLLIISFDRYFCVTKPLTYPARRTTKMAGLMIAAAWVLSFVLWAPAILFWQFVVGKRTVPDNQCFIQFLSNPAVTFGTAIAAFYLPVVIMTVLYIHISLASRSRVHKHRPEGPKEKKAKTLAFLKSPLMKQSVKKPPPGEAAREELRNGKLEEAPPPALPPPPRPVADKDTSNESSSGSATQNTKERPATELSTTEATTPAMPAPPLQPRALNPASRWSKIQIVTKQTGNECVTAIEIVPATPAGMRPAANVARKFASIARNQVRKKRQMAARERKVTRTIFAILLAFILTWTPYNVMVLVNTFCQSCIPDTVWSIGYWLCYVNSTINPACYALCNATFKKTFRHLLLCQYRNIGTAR

[12] = target: Estrogen receptor beta (Homo sapiens, UniProt Q92731); settings: sf9; also: in other assays of this panel Not Active means under 50% inhibition at 10 µM
[13] = target: C-C chemokine receptor type 5 (Homo sapiens, UniProt P51681); type: cell membranes, Membrane; settings: hek293; also: in other assays of this panel Not Active means under 50% inhibition at 10 µM
[14] = target: D(3) dopamine receptor (Homo sapiens, UniProt P35462); test: DRUGMATRIX: Dopamine D3 radioligand binding (ligand: [3H] Spiperone); type: cell membranes, CHO, Membrane; settings: cho
Sequence of D(3) dopamine receptor (P35462 whole entry): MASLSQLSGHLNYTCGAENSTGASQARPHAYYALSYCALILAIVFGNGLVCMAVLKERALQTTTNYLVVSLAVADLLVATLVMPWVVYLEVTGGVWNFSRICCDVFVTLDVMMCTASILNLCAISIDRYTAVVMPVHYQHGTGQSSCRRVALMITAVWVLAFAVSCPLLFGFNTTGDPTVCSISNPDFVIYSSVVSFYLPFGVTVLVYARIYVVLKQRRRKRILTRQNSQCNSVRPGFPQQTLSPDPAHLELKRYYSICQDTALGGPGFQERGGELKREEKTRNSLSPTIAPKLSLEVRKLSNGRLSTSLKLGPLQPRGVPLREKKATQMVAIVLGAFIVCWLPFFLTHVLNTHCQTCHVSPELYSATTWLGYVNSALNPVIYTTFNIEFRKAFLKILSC

Sequence of Melanocortin receptor 4 (P32245 whole entry): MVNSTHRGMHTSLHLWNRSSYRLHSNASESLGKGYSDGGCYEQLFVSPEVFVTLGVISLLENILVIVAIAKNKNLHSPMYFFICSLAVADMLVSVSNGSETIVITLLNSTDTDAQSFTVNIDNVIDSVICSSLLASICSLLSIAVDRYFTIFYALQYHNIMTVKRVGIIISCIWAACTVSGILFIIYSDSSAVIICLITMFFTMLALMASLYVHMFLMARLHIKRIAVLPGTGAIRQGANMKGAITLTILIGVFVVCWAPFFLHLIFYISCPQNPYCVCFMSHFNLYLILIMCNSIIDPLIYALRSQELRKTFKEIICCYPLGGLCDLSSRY
Sequence of Cytochrome P450 2D6 (P10635 whole entry): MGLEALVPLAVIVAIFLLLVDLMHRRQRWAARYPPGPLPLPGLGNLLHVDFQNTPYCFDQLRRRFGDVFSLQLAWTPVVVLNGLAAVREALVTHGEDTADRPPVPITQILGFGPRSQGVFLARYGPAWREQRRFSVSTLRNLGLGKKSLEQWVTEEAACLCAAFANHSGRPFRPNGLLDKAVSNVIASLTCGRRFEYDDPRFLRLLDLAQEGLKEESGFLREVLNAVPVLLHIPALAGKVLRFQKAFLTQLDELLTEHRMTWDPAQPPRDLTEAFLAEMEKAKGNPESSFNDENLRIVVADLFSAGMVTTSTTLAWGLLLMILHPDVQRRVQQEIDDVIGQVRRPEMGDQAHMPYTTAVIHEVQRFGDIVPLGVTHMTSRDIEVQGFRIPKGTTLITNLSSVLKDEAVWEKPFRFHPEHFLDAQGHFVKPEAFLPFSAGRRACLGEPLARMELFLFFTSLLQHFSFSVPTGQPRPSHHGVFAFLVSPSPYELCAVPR
Sequence of C-C chemokine receptor type 5 (P51681 whole entry): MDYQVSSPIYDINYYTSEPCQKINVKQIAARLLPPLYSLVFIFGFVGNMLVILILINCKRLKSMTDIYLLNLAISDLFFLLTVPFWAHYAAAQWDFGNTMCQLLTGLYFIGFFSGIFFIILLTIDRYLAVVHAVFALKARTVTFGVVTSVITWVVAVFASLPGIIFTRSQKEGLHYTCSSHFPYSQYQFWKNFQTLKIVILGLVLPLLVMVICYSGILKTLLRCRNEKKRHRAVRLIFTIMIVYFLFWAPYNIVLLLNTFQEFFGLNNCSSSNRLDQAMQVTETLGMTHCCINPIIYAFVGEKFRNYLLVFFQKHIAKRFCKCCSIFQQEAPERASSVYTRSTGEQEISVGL
Sequence of Adenosine receptor A2a (P29274 whole entry): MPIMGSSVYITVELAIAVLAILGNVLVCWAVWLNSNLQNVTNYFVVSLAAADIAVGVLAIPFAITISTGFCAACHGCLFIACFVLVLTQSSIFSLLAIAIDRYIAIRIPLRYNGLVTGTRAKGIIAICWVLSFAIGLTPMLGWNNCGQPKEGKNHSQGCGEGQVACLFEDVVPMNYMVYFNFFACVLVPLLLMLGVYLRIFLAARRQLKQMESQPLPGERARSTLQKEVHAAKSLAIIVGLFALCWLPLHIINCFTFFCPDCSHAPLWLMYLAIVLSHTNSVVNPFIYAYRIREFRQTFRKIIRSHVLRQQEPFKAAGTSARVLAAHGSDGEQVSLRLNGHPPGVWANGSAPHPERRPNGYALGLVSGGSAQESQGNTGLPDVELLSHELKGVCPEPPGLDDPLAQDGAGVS
Sequence of Sodium-dependent dopamine transporter (Q01959 whole entry): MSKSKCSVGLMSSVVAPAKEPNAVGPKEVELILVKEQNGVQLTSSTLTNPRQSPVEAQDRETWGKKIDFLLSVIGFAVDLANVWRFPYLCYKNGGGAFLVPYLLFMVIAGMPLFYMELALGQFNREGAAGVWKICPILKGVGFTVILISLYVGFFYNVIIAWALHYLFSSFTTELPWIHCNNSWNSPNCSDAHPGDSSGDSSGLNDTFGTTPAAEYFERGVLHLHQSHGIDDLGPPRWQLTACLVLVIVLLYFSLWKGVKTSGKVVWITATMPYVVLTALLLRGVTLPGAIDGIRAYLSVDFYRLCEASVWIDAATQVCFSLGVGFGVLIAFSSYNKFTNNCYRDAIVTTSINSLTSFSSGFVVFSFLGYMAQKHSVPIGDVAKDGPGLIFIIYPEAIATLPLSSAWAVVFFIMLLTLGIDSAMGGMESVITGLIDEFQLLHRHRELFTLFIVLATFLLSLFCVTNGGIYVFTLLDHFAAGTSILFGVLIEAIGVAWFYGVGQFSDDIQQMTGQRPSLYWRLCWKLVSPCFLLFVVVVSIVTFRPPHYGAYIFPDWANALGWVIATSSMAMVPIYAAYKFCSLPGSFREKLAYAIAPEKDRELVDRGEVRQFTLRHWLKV
Sequence of Estrogen receptor beta (Q92731 whole entry): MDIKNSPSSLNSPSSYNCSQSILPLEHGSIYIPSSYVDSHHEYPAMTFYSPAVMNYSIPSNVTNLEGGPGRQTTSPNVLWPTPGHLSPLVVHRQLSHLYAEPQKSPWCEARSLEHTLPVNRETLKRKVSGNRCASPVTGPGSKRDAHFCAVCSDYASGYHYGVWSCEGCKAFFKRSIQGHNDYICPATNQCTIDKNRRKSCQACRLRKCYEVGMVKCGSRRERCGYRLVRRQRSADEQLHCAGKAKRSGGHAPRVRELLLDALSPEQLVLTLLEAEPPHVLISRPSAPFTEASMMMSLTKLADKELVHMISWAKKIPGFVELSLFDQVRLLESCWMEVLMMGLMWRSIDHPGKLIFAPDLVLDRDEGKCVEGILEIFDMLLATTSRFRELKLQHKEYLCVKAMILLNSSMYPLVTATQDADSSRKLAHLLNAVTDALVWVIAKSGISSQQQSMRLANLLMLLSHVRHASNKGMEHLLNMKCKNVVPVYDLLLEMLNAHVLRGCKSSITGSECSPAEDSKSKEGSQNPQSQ

Molecule | IC50 [1] | IC50 [2] | Ki [2] | IC50 [3] | Ki [3] | IC50 [4] | IC50 [5] | IC50 [6] | Ki [6] | IC50 [7] | IC50 [8] | Ki [8] | IC50 [9] | IC50 [10] | Ki [10] | IC50 [11] | IC50 [12] | IC50 [13] | IC50 [14] | further results
Cn1cnc([N+](=O)[O-])c1Sc1ncnc2nc[nH]c12 [AZATHIOPRINE] | Not Active | Not Active | Not Active | Not Active | Not Active | Not Active | Not Active | Not Active | Not Active | Not Active | Not Active | Not Active | Not Active | Not Active | Not Active | Not Active | Not Active | Not Active | Not Active | –
COC1=CC(=O)C[C@@H](C)[C@]12Oc1c(Cl)c(OC)cc(OC)c1C2=O [GRISEOFULVIN] | Not Active | Not Active | Not Active | Not Active | Not Active | Not Active | Not Active | Not Active | Not Active | Not Active | Not Active | Not Active | Not Active | Not Active | Not Active | Not Active | Not Active | Not Active | Not Active | –
O=C1CN=C(c2ccccc2)c2cc([N+](=O)[O-])ccc2N1 [NITRAZEPAM] | Not Active | Not Active | Not Active | Not Active | Not Active | Not Active | Not Active | Not Active | Not Active | Not Active | Not Active | Not Active | Not Active | Not Active | Not Active | Not Active | Not Active | Not Active | Not Active | –
CISPLATIN | Not Active | Not Active | Not Active | Not Active | Not Active | – | Not Active | Not Active | Not Active | Not Active | Not Active | Not Active | Not Active | Not Active | Not Active | Not Active | Not Active | Not Active | Not Active | Ki [1]: Not Active; pIC50 ([4]; read-out: IC50): 5.03; Ki [5]: Not Active; Ki [7]: Not Active; Ki [9]: Not Active; Ki [11]: Not Active; Ki [12]: Not Active; Ki [13]: Not Active; Ki [14]: Not Active
GOLD SODIUM THIOMALATE | Not Active | Not Active | Not Active | Not Active | Not Active | Not Active | Not Active | Not Active | Not Active | Not Active | Not Active | Not Active | Not Active | Not Active | Not Active | Not Active | Not Active | Not Active | Not Active | Ki [1]: Not Active; Ki [4]: Not Active; Ki [5]: Not Active; Ki [7]: Not Active; Ki [9]: Not Active; Ki [11]: Not Active; Ki [12]: Not Active; Ki [13]: Not Active; Ki [14]: Not Active
CN(C)[C@@H]1C(O)=C(C(N)=O)C(=O)[C@@]2(O)C(O)=C3C(=O)c4c(O)cccc4[C@@](C)(O)[C@H]3[C@H](O)[C@@H]12 [OXYTETRACYCLINE] | Not Active | Not Active | Not Active | Not Active | Not Active | Not Active | Not Active | Not Active | Not Active | Not Active | Not Active | Not Active | Not Active | Not Active | Not Active | Not Active | Not Active | Not Active | Not Active | –
CN(C)CCCC1(c2ccc(F)cc2)OCc2cc(C#N)ccc21 (stereo not given) [CITALOPRAM] | Not Active | Not Active | Not Active | Not Active | Not Active | Not Active | Not Active | Not Active | Not Active | Not Active | Not Active | Not Active | Not Active | Not Active | Not Active | Not Active | Not Active | Not Active | Not Active | –
